# Source: PubChem BioAssay (NCI)
#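 1) Cells in 96-well plates. 2) Compound, 48 h, 5 concentrations. 3) Linear interpolation between surrounding doses. 4) Unreached endpoint = highest concentration. At the TGI there is no net growth.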
# Key:
# Assay in all cases: NCI-60 cell line screen, 48 h
# NCI-H23 lung = test system: NCI-H23 lung
# RXF 393 renal = test system: RXF 393 renal
# SF-539 CNS = test system: SF-539 CNS
# NCI-H522 lung = test system: NCI-H522 lung
# HL-60(TB) leukemia = test system: HL-60(TB) leukemia
# SK-MEL-5 melanoma = test system: SK-MEL-5 melanoma
# NCI-H460 lung = test system: NCI-H460 lung
# OVCAR-5 ovarian = test system: OVCAR-5 ovarian
# TK-10 renal = test system: TK-10 renal
# 786-0 renal = test system: 786-0 renal
# DMS 114 small cell lung = test system: DMS 114 small cell lung
# SNB-78 CNS = test system: SNB-78 CNS
# SK-MEL-2 melanoma = test system: SK-MEL-2 melanoma
# DLD-1 colon = test system: DLD-1 colon
# RPMI-8226 leukemia = test system: RPMI-8226 leukemia
# M14 melanoma = test system: M14 melanoma
# HT29 colon = test system: HT29 colon
# SK-OV-3 ovarian = test system: SK-OV-3 ovarian
# NCI-H226 lung = test system: NCI-H226 lung
# CAKI-1 renal = test system: CAKI-1 renal
# EKVX NSCLC = test system: EKVX NSCLC
# IGROV1 ovarian = test system: IGROV1 ovarian
# OVCAR-8 ovarian = test system: OVCAR-8 ovarian
# U251 CNS = test system: U251 CNS
# SNB-75 CNS = test system: SNB-75 CNS
# SK-MEL-28 melanoma = test system: SK-MEL-28 melanoma
# SF-295 CNS = test system: SF-295 CNS
# UACC-62 melanoma = test system: UACC-62 melanoma
# LOX IMVI melanoma = test system: LOX IMVI melanoma
# DMS 273 small cell lung = test system: DMS 273 small cell lung
# SW-620 colon = test system: SW-620 colon
# A549 NSCLC = test system: A549 NSCLC
# HCT-15 colon = test system: HCT-15 colon
# ACHN renal = test system: ACHN renal
# COLO 205 colon = test system: COLO 205 colon
# MALME-3M melanoma = test system: MALME-3M melanoma
# LXFL 529 NSCLC = test system: LXFL 529 NSCLC
# CCRF-CEM leukemia = test system: CCRF-CEM leukemia
# SR leukemia = test system: SR leukemia
# KM20L2 colon = test system: KM20L2 colon
# SNB-19 CNS = test system: SNB-19 CNS
# M19-MEL melanoma = test system: M19-MEL melanoma
# SN12C renal = test system: SN12C renal
# UACC-257 melanoma = test system: UACC-257 melanoma
# HCT-116 colon = test system: HCT-116 colon
# HCC-2998 colon = test system: HCC-2998 colon
# SF-268 CNS = test system: SF-268 CNS
# OVCAR-3 ovarian = test system: OVCAR-3 ovarian
# MOLT-4 leukemia = test system: MOLT-4 leukemia
# HOP-62 NSCLC = test system: HOP-62 NSCLC
# UO-31 renal = test system: UO-31 renal
# K-562 leukemia = test system: K-562 leukemia
# OVCAR-4 ovarian = test system: OVCAR-4 ovarian
# KM12 colon = test system: KM12 colon
# XF 498 CNS = test system: XF 498 CNS
compound,measurement,setting,value
CCOC1c2cc(C(C)C)c(O)c(O)c2[C@@]23CCCC(C)(C)C2C1OC3=O (some centres not stated),TGI,NCI-H23 lung,> 100 µM
same,TGI,RXF 393 renal,> 100 µM
same,TGI,SF-539 CNS,> 100 µM
same,TGI,NCI-H522 lung,98.6 µM
same,TGI,HL-60(TB) leukemia,> 100 µM
same,TGI,SK-MEL-5 melanoma,> 100 µM
same,TGI,NCI-H460 lung,> 100 µM
same,TGI,OVCAR-5 ovarian,> 100 µM
same,TGI,TK-10 renal,> 100 µM
same,TGI,786-0 renal,> 100 µM
same,TGI,DMS 114 small cell lung,> 100 µM
same,TGI,SNB-78 CNS,> 100 µM
same,TGI,SK-MEL-2 melanoma,> 100 µM
same,TGI,DLD-1 colon,> 100 µM
same,TGI,RPMI-8226 leukemia,> 100 µM
same,TGI,M14 melanoma,> 100 µM
same,TGI,HT29 colon,> 100 µM
same,TGI,SK-OV-3 ovarian,> 100 µM
same,TGI,NCI-H226 lung,> 100 µM
same,TGI,CAKI-1 renal,> 100 µM
same,TGI,EKVX NSCLC,> 100 µM
same,TGI,IGROV1 ovarian,> 100 µM
same,TGI,OVCAR-8 ovarian,> 100 µM
same,TGI,U251 CNS,> 100 µM
same,TGI,SNB-75 CNS,> 100 µM
same,TGI,SK-MEL-28 melanoma,> 100 µM
same,TGI,SF-295 CNS,> 100 µM
same,TGI,UACC-62 melanoma,> 100 µM
same,TGI,LOX IMVI melanoma,> 100 µM
same,TGI,DMS 273 small cell lung,> 100 µM
same,TGI,SW-620 colon,> 100 µM
same,TGI,A549 NSCLC,> 100 µM
same,TGI,HCT-15 colon,> 100 µM
same,TGI,ACHN renal,> 100 µM
same,TGI,COLO 205 colon,> 100 µM
same,TGI,MALME-3M melanoma,> 100 µM
same,TGI,LXFL 529 NSCLC,> 100 µM
same,TGI,CCRF-CEM leukemia,> 100 µM
same,TGI,SR leukemia,> 100 µM
same,TGI,KM20L2 colon,> 100 µM
same,TGI,SNB-19 CNS,> 100 µM
same,TGI,M19-MEL melanoma,> 100 µM
same,TGI,SN12C renal,> 100 µM
same,TGI,UACC-257 melanoma,> 100 µM
same,TGI,HCT-116 colon,> 100 µM
same,TGI,HCC-2998 colon,> 100 µM
same,TGI,SF-268 CNS,> 100 µM
same,TGI,OVCAR-3 ovarian,> 100 µM
same,TGI,MOLT-4 leukemia,> 100 µM
same,TGI,HOP-62 NSCLC,> 100 µM
same,TGI,UO-31 renal,> 100 µM
same,TGI,K-562 leukemia,> 100 µM
CN(CCN(C)C(=O)CCn1cc(F)c(=O)[nH]c1=O)C(=O)CCn1cc(F)c(=O)[nH]c1=O,TGI,NCI-H23 lung,> 100 µM
same,TGI,RXF 393 renal,> 100 µM
same,TGI,SF-539 CNS,> 100 µM
same,TGI,NCI-H522 lung,12.5 µM
same,TGI,HL-60(TB) leukemia,> 100 µM
same,TGI,SK-MEL-5 melanoma,> 100 µM
same,TGI,NCI-H460 lung,> 100 µM
same,TGI,OVCAR-5 ovarian,> 100 µM
same,TGI,TK-10 renal,> 100 µM
same,TGI,786-0 renal,> 100 µM
same,TGI,DMS 114 small cell lung,> 100 µM
same,TGI,SK-MEL-2 melanoma,> 100 µM
same,TGI,RPMI-8226 leukemia,> 100 µM
same,TGI,M14 melanoma,> 100 µM
same,TGI,HT29 colon,> 100 µM
same,TGI,NCI-H226 lung,> 100 µM
same,TGI,OVCAR-4 ovarian,> 100 µM
same,TGI,EKVX NSCLC,> 100 µM
same,TGI,IGROV1 ovarian,> 100 µM
same,TGI,OVCAR-8 ovarian,> 100 µM
same,TGI,U251 CNS,> 100 µM
same,TGI,SNB-75 CNS,> 100 µM
same,TGI,SK-MEL-28 melanoma,> 100 µM
same,TGI,SF-295 CNS,> 100 µM
same,TGI,UACC-62 melanoma,> 100 µM
same,TGI,LOX IMVI melanoma,> 100 µM
same,TGI,DMS 273 small cell lung,> 100 µM
same,TGI,KM12 colon,> 100 µM
same,TGI,SW-620 colon,> 100 µM
same,TGI,A549 NSCLC,> 100 µM
same,TGI,HCT-15 colon,> 100 µM
same,TGI,ACHN renal,> 100 µM
same,TGI,COLO 205 colon,> 100 µM
same,TGI,MALME-3M melanoma,> 100 µM
same,TGI,LXFL 529 NSCLC,> 100 µM
same,TGI,CCRF-CEM leukemia,> 100 µM
same,TGI,SR leukemia,> 100 µM
same,TGI,KM20L2 colon,> 100 µM
same,TGI,SNB-19 CNS,> 100 µM
same,TGI,M19-MEL melanoma,> 100 µM
same,TGI,SN12C renal,> 100 µM
same,TGI,HCT-116 colon,> 100 µM
same,TGI,HCC-2998 colon,> 100 µM
same,TGI,SF-268 CNS,> 100 µM
same,TGI,OVCAR-3 ovarian,> 100 µM
same,TGI,MOLT-4 leukemia,> 100 µM
same,TGI,HOP-62 NSCLC,> 100 µM
same,TGI,UO-31 renal,> 100 µM
same,TGI,K-562 leukemia,> 100 µM
same,TGI,XF 498 CNS,> 100 µM
